Measured values published in US9409905B2, “Antibacterial compounds and methods for use” (PTC THERAPEUTICS, INC., priority 2011, dated 2016).
In brackets after ≈: the same amount, converted by molar mass.

What was measured:
E. coli LZ3111 = assay: Antibacterial activity, MIC, quinolone resistant strain (Table 2); type: cell-based; details: Escherichia coli, LZ3111, read-out: MIC LZ3111
Excerpt: (§1) The antibacterial activity from a microbroth dilution method may be presented as the minimum inhibitory concentration (MIC in μg/mL). The MIC value is the lowest concentration of drug which prevents macroscopically visible growth under test conditions.
Mutations in these regions are known to confer a high level resistance to the quinolone class of antibiotics.

E. coli 25922 = assay: Antibacterial activity, microbroth dilution MIC (Table 1); type: cell-based, Escherichia coli; details: Escherichia coli; microbroth dilution; control Gram-negative E. coli 25922 strain; read-out: MIC, 25922
Excerpt: as §1
(§2) Antibacterial activity of test compounds against the super sensitive Gram-negative Escherichia coli (E. coli) BAS849 bacterium, the control Gram-negative E. coli 25922 strain and the Gram-positive Staphylococcus aureus (S. aureus) 29213 bacterium are shown in Table 1.

[1] = test system: Staphylococcus aureus (S. aureus) 29213; assay: as above; type: cell-based; details: microbroth dilution, Gram-positive S. aureus 29213, read-out: MIC, 29213
Excerpt: as §1, §2

[2] = test system: Escherichia coli (E. coli) BAS849; assay: as above; type: cell-based; details: microbroth dilution, super sensitive Gram-negative E. coli BAS849, read-out: MIC, BAS849
Excerpt: as §1, §2

Compound | MIC (E. coli LZ3111) [µg/mL] | MIC (E. coli 25922) [µg/mL] | MIC [1] [µg/mL] | MIC [2] [µg/mL]
CCc1cc(C(=O)O)c(=O)[nH]c1-c1ccc2c(c1)cc(C1=NCCCN1)n2C [Cpd 86, 5-ethyl-6-(1-methyl-2-(1,4,5,6-tetrahydropyrimidin-2-yl)-1H-indol-5-yl)-2-oxo-1,2-dihydropyridine-3-carboxylic acid] | 12.5 to 150 (≈ 33 to 396 µM) | 12.5 to 150 (≈ 33 to 396 µM) | 12.5 to 150 (≈ 33 to 396 µM) | 12.5 to 150 (≈ 33 to 396 µM)
CCc1cc(C(=O)O)c(=O)[nH]c1-c1ccc2c(c1)cc(C(C)(C)N(C)C)n2C [Cpd 87, 6-(2-(2-(dimethylamino)propan-2-yl)-1-methyl-1H-indol-5-yl)-5-ethyl-2-oxo-1,2-dihydropyridine-3-carboxylic acid] | 12.5 to 150 (≈ 32.8 to 393 µM) | 3.5 to 12.5 (≈ 9.17 to 32.8 µM) | 12.5 to 150 (≈ 32.8 to 393 µM) | < 1
CCc1cc(C(=O)O)c(=O)[nH]c1-c1ccc2c(c1)cc(C(C)(C)N1CCCC1)n2C [Cpd 88, 5-ethyl-6-(1-methyl-2-(2-(pyrrolidin-1-yl)propan-2-yl)-1H-indol-5-yl)-2-oxo-1,2-dihydropyridine-3-carboxylic acid] | 12.5 to 150 (≈ 30.7 to 368 µM) | 3.5 to 12.5 (≈ 8.59 to 30.7 µM) | 12.5 to 150 (≈ 30.7 to 368 µM) | < 1
CCc1cc(C(=O)O)c(=O)[nH]c1-c1cc2cc(CN3CCCC3)n(C)c2cc1C [Cpd 89, 6-(1,6-dimethyl-2-(pyrrolidin-1-ylmethyl)-1H-indol-5-yl)-5-ethyl-2-oxo-1,2-dihydropyridine-3-carboxylic acid] | 12.5 to 150 (≈ 31.8 to 381 µM) | 12.5 to 150 (≈ 31.8 to 381 µM) | 12.5 to 150 (≈ 31.8 to 381 µM) | 12.5 to 150 (≈ 31.8 to 381 µM)
CCc1cc(C(=O)O)c(=O)[nH]c1-c1cc2cc(CN3CCCCC3)n(C)c2cc1C [Cpd 90, 6-(1,6-dimethyl-2-(piperidin-1-ylmethyl)-1H-indol-5-yl)-5-ethyl-2-oxo-1,2-dihydropyridine-3-carboxylic acid] | 12.5 to 150 (≈ 30.7 to 368 µM) | 12.5 to 150 (≈ 30.7 to 368 µM) | 12.5 to 150 (≈ 30.7 to 368 µM) | 12.5 to 150 (≈ 30.7 to 368 µM)
CCc1cc(C(=O)O)c(=O)[nH]c1-c1cc2cc(CN3CCOCC3)n(C)c2cc1Cl [Cpd 91, 6-(6-chloro-1-methyl-2-(morpholinomethyl)-1H-indol-5-yl)-5-ethyl-2-oxo-1,2-dihydropyridine-3-carboxylic acid] | 12.5 to 150 (≈ 29.1 to 349 µM) | 12.5 to 150 (≈ 29.1 to 349 µM) | 12.5 to 150 (≈ 29.1 to 349 µM) | 12.5 to 150 (≈ 29.1 to 349 µM)
CCc1cc(C(=O)O)c(=O)[nH]c1-c1cc2cc(CN(CC)CC)n(C)c2cc1Cl [Cpd 92, 6-(6-chloro-2-((diethylamino)methyl)-1-methyl-1H-indol-5-yl)-5-ethyl-2-oxo-1,2-dihydropyridine-3-carboxylic acid] | 12.5 to 150 (≈ 30.1 to 361 µM) | 12.5 to 150 (≈ 30.1 to 361 µM) | 12.5 to 150 (≈ 30.1 to 361 µM) | 12.5 to 150 (≈ 30.1 to 361 µM)
CCc1cc(C(=O)O)c(=O)[nH]c1-c1cc2cc(CN(C)C)n(C)c2cc1Cl [Cpd 93, 6-(6-chloro-2-((dimethylamino)methyl)-1-methyl-1H-indol-5-yl)-5-ethyl-2-oxo-1,2-dihydropyridine-3-carboxylic acid] | 12.5 to 150 (≈ 32.2 to 387 µM) | 12.5 to 150 (≈ 32.2 to 387 µM) | 12.5 to 150 (≈ 32.2 to 387 µM) | 12.5 to 150 (≈ 32.2 to 387 µM)
CCc1cc(C(=O)O)c(=O)[nH]c1-c1cc2cc(CN3CCOCC3)n(C)c2cc1C [Cpd 94, 6-(1,6-dimethyl-2-(morpholinomethyl)-1H-indol-5-yl)-5-ethyl-2-oxo-1,2-dihydropyridine-3-carboxylic acid] | 12.5 to 150 (≈ 30.5 to 366 µM) | 12.5 to 150 (≈ 30.5 to 366 µM) | 12.5 to 150 (≈ 30.5 to 366 µM) | 12.5 to 150 (≈ 30.5 to 366 µM)
CCc1cc(C(=O)O)c(=O)[nH]c1-c1cc2cc(CN(CC)CC)n(C)c2cc1C [Cpd 95, 6-(2-((diethylamino)methyl)-1,6-dimethyl-1H-indol-5-yl)-5-ethyl-2-oxo-1,2-dihydropyridine-3-carboxylic acid] | 12.5 to 150 (≈ 31.6 to 379 µM) | 12.5 to 150 (≈ 31.6 to 379 µM) | 12.5 to 150 (≈ 31.6 to 379 µM) | 12.5 to 150 (≈ 31.6 to 379 µM)
CCc1cc(C(=O)O)c(=O)[nH]c1-c1cc2cc(CN(C)C)n(C)c2cc1C [Cpd 96, 6-(2-((dimethylamino)methyl)-1,6-dimethyl-1H-indol-5-yl)-5-ethyl-2-oxo-1,2-dihydropyridine-3-carboxylic acid] | 12.5 to 150 (≈ 34 to 408 µM) | 12.5 to 150 (≈ 34 to 408 µM) | 12.5 to 150 (≈ 34 to 408 µM) | 12.5 to 150 (≈ 34 to 408 µM)
CCc1cc(C(=O)O)c(=O)[nH]c1-c1cc(F)c2c(c1)cc(CN1CCCC1)n2C [Cpd 97, 5-ethyl-6-(7-fluoro-1-methyl-2-(pyrrolidin-1-ylmethyl)-1H-indol-5-yl)-2-oxo-1,2-dihydropyridine-3-carboxylic acid] | 12.5 to 150 (≈ 31.5 to 377 µM) | 1 to 3.5 (≈ 2.52 to 8.81 µM) | 12.5 to 150 (≈ 31.5 to 377 µM) | < 1
CCc1cc(C(=O)O)c(=O)[nH]c1-c1cc(F)c2c(c1)cc(CN1CCOCC1)n2C [Cpd 98, 5-ethyl-6-(7-fluoro-1-methyl-2-(morpholinomethyl)-1H-indol-5-yl)-2-oxo-1,2-dihydropyridine-3-carboxylic acid] | 12.5 to 150 (≈ 30.2 to 363 µM) | 3.5 to 12.5 (≈ 8.47 to 30.2 µM) | 12.5 to 150 (≈ 30.2 to 363 µM) | < 1
